We go through two molecules from publication PMC5156807, “Stabilized Polymer Micelles for the Development of IT-147, an Epothilone D Drug-Loaded Formulation” (Journal of Drug Delivery, 2016).

A short description of data set [1]: Stability of drug substance in pilot formulations (mass spectrometry). The class given is physicochemical. From the text:
Epothilones B and D were selected for encapsulation using triblock copolymers. […] This was not completely surprising as stability of epothilone B both in vitro and in vivo has been addressed in the literature. Epothilone D, the alkene derivative of epothilone B (also known as desoxy-epothilone B), was selected as the preferred drug substance for encapsulation due to increased stability in aqueous environments and pH fluctuations. A small library of triblock copolymers was used to conduct pilot formulations of epothilone D drug-loaded micelles, with the ultimate goal to select IT-147, the lead for development of an epothilone D encapsulated polymer micelle formulation. Five of the polymers chosen for the library contained stabilizing blocks comprised of hydroxamic acid functionalized poly(glutamic acid), and five of the polymers contained poly(cysteine) amino acid moieties as stabilizing blocks (Figure 2, Table 1). All polymers contained a 12 kDa PEG and a mixture of hydrophobic amino acids with D and L isomers in the core block. Pilot formulations were characterized by determining formulation efficiency, epothilone D drug loading (% w/w), average particle diameter, and retention of epothilone D following dialysis above and below the critical micelle concentration (Table 1).

For data set [2] the following is noted: intraperitoneal bolus, mouse tumor models; cited from earlier work.
A short description of data set [3]: Dialysis stability / pH-dependent release assay. The class given is physicochemical. The following applies: 20 mg/mL, 3500 MWC, 10 mM phosphate buffer, 6 hours, room temperature; epothilone D retained. The method, then:
Retention of the epothilone drug substance within the micelle formulation and the release profile of the drug substance over time, concentration, and pH were investigated using dialysis. Formulations were reconstituted at concentrations of 20 mg/mL and 0.2 mg/mL and placed in dialysis tubing with 3500 MWC pore size, which allows for retention of the micelles within the bag and release of the free drug from the bag into the reservoir. A volume of 3 mL of reconstituted formulation was placed into dialysis bags and then placed in a 300 mL reservoir containing 10 mM phosphate buffer and stirred for 6 hours at room temperature. HPLC assay for epothilone concentration of the formulation inside the bag was done before and after dialysis to determine the percentage of epothilone retained inside the dialysis bag over 6 hours. pH-dependent release was performed using 10 mM phosphate buffer at pH 3, 4, 5, 6, 7, 7.4, and 8 in the reservoirs during dialysis.

Data set [4] can be described thus: Plasma pharmacokinetic screening of pilot formulations in cannulated rat model. To be noted: rat plasma epothilone D, 10 mg/kg fast bolus jugular vein catheter. Format: in vivo, Sprague-Dawley rats. Here is the method:
The lead hydroxamic acid and cysteine containing formulations were compared to free epothilone D using a cannulated rat model by administering a 10 mg/kg dose by fast bolus to the jugular vein catheter. Female, Sprague-Dawley rats surgically modified with jugular vein catheters exteriorized posteriorly were purchased from Harlan Labs. Catheters were flushed and maintained with heparinized saline to ensure patency over the study period. The catheter port was used for both test article administration and blood collection. IT-147 pharmacokinetics at 20, 30, and 40 mg/kg were compared to epothilone D free drug at 20 mg/kg in the cannulated rat model. IT-147 was reconstituted in saline, while epothilone D free drug was reconstituted in cremaphor : ethanol : saline at 1 : 1 : 4 ratio. All in vivo studies were conducted under Institutional Guidelines. The Institutional Animal Care and Use Committee (IACUC), at the University of South Florida (USF), approved all rat in vivo study protocols. Animals were maintained and evaluated under pathogen-free conditions in accordance with USF College of Medicine IACUC standards of care. Approximately 300 μL of blood was collected into K2EDTA tubes containing PMSF (final concentration 2.5 mM) at time points of 1, 5, 15, and 60 minutes after test article administration. Samples were centrifuged at 2000 RPM for 5 minutes to isolate plasma. Plasma was aliquoted into microcentrifuge tubes and frozen at −20°C until processed for HPLC/UV analysis. […]
Stability of polymer micelles to dilution is one of the most important physiochemical characteristics for a formulation to be successful in vivo. […] The top two candidates from the pilot epothilone D formulations were evaluated, along with epothilone D free drug, using a cannulated rat model for pharmacokinetics. Selection of the lead epothilone D formulation, termed IT-147, was determined from the exposure of epothilone D to the plasma compartment by calculating the area under the concentration versus time curve (AUC) and maximum concentration (C max). […]

Data set [5] can be described thus: Pilot toxicokinetic dose range-finding study in cannulated rat model. The class given is in vivo, Sprague-Dawley rats. To be noted: for Dose limiting Toxicities / average weight loss: rat, 20 mg/kg; for Dose limiting Toxicities: w.l. = weight loss; for average weight loss: four days. Here is the method: The lead hydroxamic acid and cysteine containing formulations were compared to free epothilone D using a cannulated rat model by administering a 10 mg/kg dose by fast bolus to the jugular vein catheter. Female, Sprague-Dawley rats surgically modified with jugular vein catheters exteriorized posteriorly were purchased from Harlan Labs. Catheters were flushed and maintained with heparinized saline to ensure patency over the study period. The catheter port was used for both test article administration and blood collection. IT-147 pharmacokinetics at 20, 30, and 40 mg/kg were compared to epothilone D free drug at 20 mg/kg in the cannulated rat model. IT-147 was reconstituted in saline, while epothilone D free drug was reconstituted in cremaphor : ethanol : saline at 1 : 1 : 4 ratio. All in vivo studies were conducted under Institutional Guidelines. The Institutional Animal Care and Use Committee (IACUC), at the University of South Florida (USF), approved all rat in vivo study protocols. Animals were maintained and evaluated under pathogen-free conditions in accordance with USF College of Medicine IACUC standards of care. Approximately 300 μL of blood was collected into K2EDTA tubes containing PMSF (final concentration 2.5 mM) at time points of 1, 5, 15, and 60 minutes after test article administration. Samples were centrifuged at 2000 RPM for 5 minutes to isolate plasma. Plasma was aliquoted into microcentrifuge tubes and frozen at −20°C until processed for HPLC/UV analysis. The following bioanalytical method is a modification of the procedure originally developed by Yuan et al.. Bioanalytical sample preparation was performed by liquid : liquid extraction. 50 μL of plasma sample was added to 600 μL of n-butyl chloride and vortexed for 10 minutes. Samples were centrifuged at 10,000 RPM for 10 minutes and the organic supernatant was aliquoted into microcentrifuge tubes. The n-butyl chloride supernatant was evaporated to dryness using a turbovap with nitrogen flow at room temperature, and 75 μL of a 40% acetonitrile in water solution was added to each tube. Samples were then vortexed for 5 minutes, aliquoted into HPLC vials, and processed using HPLC methodology as described in Section 2.3. Blank rat plasma containing PMSF was used to spike in epothilone D for standard curve preparation and processed as described for the plasma samples to determine concentration of epothilone D isolated from the samples collected from the cannulated rats. Noncompartmental analysis of the pharmacokinetic data was done using Phoenix WinNonlin version 6.3.
A pilot dose range-finding toxicokinetic study in a cannulated rat model was performed to support future full scale toxicokinetic studies of IT-147. Doses of IT-147 at 20, 30 and 40 mg/kg were compared to epothilone D free drug at 20 mg/kg (Table 3, Figure 7) followed by monitoring of animal weight change, gross signs of clinical toxicity, and limited plasma sampling for pharmacokinetic analysis (Table 4). IT-147 was reconstituted in saline while epothilone D free drug was administered in a cremaphor : ethanol : saline mixture. Test articles were given by fast bolus to the rat jugular vein, and blood was collected at time points of 1 minute, 5 minutes, 15 minutes, 1 hour, 2 hours, 4 hours, and 6 hours. […] Samples collected after the 1-hour time point were below the limit of quantitation for analysis. […] It was concluded that 20 mg/kg epothilone D free drug was above the maximum tolerated dose for these animals. […] Animals were monitored for one week following test article administration. […] Animals were monitored for four days after test article administration and were euthanized on the fourth day due to welfare concerns. […] It was concluded that 40 mg/kg epothilone D from IT-147 was above the maximum tolerated dose for these animals.

Where [6] appears, read: female, Sprague-Dawley, iv, rat plasma, 20 mg/kg epothilone D equivalent, fast bolus jugular vein.

Like-named read-outs stand apart in the source and are kept apart here.

In general, LD50 refers to the dose at which mortality reaches 50%. Regarding `C/C(=C\c1csc(C)n1)[C@@H]1C[C@@H]2O[C@]2(C)CCC[C@H](C)[C@H](O)[C@@H](C)C(=O)C(C)(C)[C@@H](O)CC(=O)O1` [epothilone B], the “stability of the drug substance (epoxide ring) under formulation conditions” value in data set [1] is given as “unstable to all experimental formulation conditions”. Moreover, in data set [2], the LD50 is listed as 0.6 mg/kg and the maximum tolerated dose is given as 0.3 mg/kg.
For orientation: Cmax means the highest concentration seen after dosing. Usually clearance stands for the volume of plasma or blood freed of the substance per unit of time. Broadly, the half-life is the time needed for the level to fall by half in the phase considered. Turning to `C/C1=C/C[C@@H](/C(C)=C/c2csc(C)n2)OC(=O)C[C@H](O)C(C)(C)C(=O)[C@H](C)[C@@H](O)[C@@H](C)CCC1` [epothilone D], the “Dialysis > CMC (% remaining)” value in data set [3] stood at 15%. Moreover, the maximum tolerated dose is 25 mg/kg in data set [2] and less than 20 mg/kg in data set [5] (cannulated rat, single fast bolus, epothilone D equivalent, listed as epothilone D free drug). Further, the concentration at 60 min in data set [4] (female, Sprague-Dawley, intravenous, 60 minutes, read-out: Clast) is 1.6 ± 0.8 µg/mL. For the same molecule, the maximum concentration (Cmax) is 19.7 ± 4.1 µg/mL in data set [4] (female, Sprague-Dawley, intravenous, at 1 minute) and 32.2 µg/mL in data set [5] (setting [6]). For the same molecule, the “AUC(0-1 h)” value in data set [4] worked out at 5.2 h∗µg/mL. For the same molecule, the clearance in data set [5] (setting [6]) is 2.41 L/h/kg. The half-life in data set [5] (female, Sprague-Dawley, iv, terminal, rat plasma, 20 mg/kg epothilone D equivalent, fast bolus jugular vein) is 18 min. In addition, the “AUC(0–6 h)” value in data set [5] (rat plasma, 20 mg/kg epothilone D equivalent, fast bolus jugular vein) is recorded as 8.3 h∗µg/mL. In addition, the “Dose limiting Toxicities” value was >10% w.l. lethargy impaired gait orbital-bleeding in data set [5] (20 mg/kg epothilone D equivalent, listed as Epo D); “lethargy, impaired gait, orbital bleeding, porphyrin accumulation around the face, and disheveled fur” in data set [5] (20 mg/kg epothilone D equivalent, listed as Epothilone D free drug); “lethargy, gait impairment, and retro-orbital bleeding” in data set [5] (20 mg/kg epothilone D equivalent, listed as epothilone D free drug). Moreover, the average weight loss is reported as 12% in data set [5] (listed as Epothilone D free drug) and “greater than 10%” in data set [5] (listed as epothilone D free drug).
